Results from patent publication US11980188B2, “Spiro cyclohexanedione derivates as herbicides” (SYNGENTA PARTICIPATIONS AG, priority 2018, dated 2024).

Experiments:
Assay in all cases: Glasshouse herbicide test, pre- and post-emergence, percentage damage
Assay type in all cases: in vivo
Avena fatua (AVEFA) = conditions: 250 g/h, evaluated after 13 days, percentage damage on five point scale; for AVEFA POST: post-emergence; for AVEFA PRE: pre-emergence
Description: (§1) Seeds of a variety of test species are sown in standard soil in pots (Lolium perenne (LOLPE), Setaria faberi (SETFA), Alopecurus myosuroides (ALOMY), Echinochloa crus-galli (ECHCG), Avena fatua (AVEFA)). After cultivation for one day (pre-emergence) or after 8 days cultivation (post-emergence) under controlled conditions in a glasshouse (at 24/16° C., day/night; 14 hours light; 65% humidity), the plants are sprayed with an aqueous spray solution derived from the formulation of the technical active ingredient in acetone/water (50:50) solution containing 0.5% Tween 20 (polyoxyethelyene sorbitan monolaurate, CAS RN 9005-64-5). Compounds are applied at […]. The test plants are then grown in a glasshouse under controlled conditions in a glasshouse (at 24/16° C., day/night; 14 hours light; 65% humidity) and watered twice daily. After 13 days for pre and post-emergence, the test is evaluated for the percentage damage caused to the plant. The biological activities are shown in the following table on a five point scale (5=80-100%; 4=60-79%; 3=40-59%; 2=20-39%; 1=0-19%).

[1] = test system: Echinochloa crus-galli (ECHCG); conditions: 250 g/h, evaluated after 13 days, percentage damage on five point scale; for ECHCG POST: post-emergence; for ECHCG PRE: pre-emergence
Description: as §1

Lolium perenne (LOLPE) = conditions: 250 g/h, evaluated after 13 days, percentage damage on five point scale; for LOLPE POST: post-emergence; for LOLPE PRE: pre-emergence
Description: as §1

Setaria faberi (SETFA) = conditions: 250 g/h, evaluated after 13 days, percentage damage on five point scale; for SETFA POST: post-emergence; for SETFA PRE: pre-emergence
Description: as §1

| Compound | AVEFA POST (Avena fatua (AVEFA)) | AVEFA PRE (Avena fatua (AVEFA)) | ECHCG POST [1] | ECHCG PRE [1] | LOLPE POST (Lolium perenne (LOLPE)) | LOLPE PRE (Lolium perenne (LOLPE)) | SETFA POST (Setaria faberi (SETFA)) | SETFA PRE (Setaria faberi (SETFA)) |
| --- | --- | --- | --- | --- | --- | --- | --- | --- |
| Cc1cc(-c2ccc(F)cc2)cc(C)c1C1C(=O)CC2(CCN(C(=O)NC(=O)c3ccccn3)CC2)CC1=O [Compound A62] | 5 (5=80-100%) | 2 (2=20-39%) | 3 (3=40-59%) | 1 (1=0-19%) | 2 (2=20-39%) | 2 (2=20-39%) | 5 (5=80-100%) | 3 (3=40-59%) |
| CCS(=O)(=O)N1CCC2(CC1)CC(=O)C(c1c(C)cc(-c3ccc(F)cc3)cc1OC)C(=O)C2 [Compound A64] | 5 (5=80-100%) | 5 (5=80-100%) | 5 (5=80-100%) | 5 (5=80-100%) | 5 (5=80-100%) | 5 (5=80-100%) | 5 (5=80-100%) | 5 (5=80-100%) |
| COc1cc(-c2ccc(F)cc2)cc(C)c1C1C(=O)CC2(CCN(C(=O)c3ccccn3)CC2)CC1=O [Compound A66] | 5 (5=80-100%) | 5 (5=80-100%) | 5 (5=80-100%) | 5 (5=80-100%) | 5 (5=80-100%) | 5 (5=80-100%) | 5 (5=80-100%) | 5 (5=80-100%) |
| COCC(=O)N1CCC2(CC1)CC(=O)C(c1c(C)cc(-c3ccc(F)cc3)cc1OC)C(=O)C2 [Compound A67] | 5 (5=80-100%) | 5 (5=80-100%) | 5 (5=80-100%) | 5 (5=80-100%) | 5 (5=80-100%) | 5 (5=80-100%) | 5 (5=80-100%) | 5 (5=80-100%) |
| COc1cc(-c2ccc(F)cc2)cc(C)c1C1C(=O)CC2(CCN(C(=O)NC(C)(C)C)CC2)CC1=O [Compound A68] | 5 (5=80-100%) | 4 (4=60-79%) | 5 (5=80-100%) | 5 (5=80-100%) | 5 (5=80-100%) | 4 (4=60-79%) | 5 (5=80-100%) | 5 (5=80-100%) |
| COc1cc(-c2ccc(F)cc2)cc(C)c1C1C(=O)CC2(CCN(C(=O)NC(=O)C(C)(C)C)CC2)CC1=O [Compound A69] | 5 (5=80-100%) | 2 (2=20-39%) | 5 (5=80-100%) | 5 (5=80-100%) | 5 (5=80-100%) | 4 (4=60-79%) | 5 (5=80-100%) | 5 (5=80-100%) |
| COc1cc(-c2ccc(F)cc2)cc(C)c1C1C(=O)CC2(CCN(C(=O)C3CC3)CC2)CC1=O [Compound A70] | 5 (5=80-100%) | 5 (5=80-100%) | 5 (5=80-100%) | 5 (5=80-100%) | 5 (5=80-100%) | 5 (5=80-100%) | 5 (5=80-100%) | 5 (5=80-100%) |
| COc1cc(-c2ccc(F)cc2)cc(C)c1C1C(=O)CC2(CCN(C(=O)C(F)F)CC2)CC1=O [Compound A71] | 5 (5=80-100%) | 5 (5=80-100%) | 5 (5=80-100%) | 5 (5=80-100%) | 5 (5=80-100%) | 5 (5=80-100%) | 5 (5=80-100%) | 5 (5=80-100%) |
| COc1cc(-c2ccc(F)cc2)cc(C)c1C1C(=O)CC2(CCN(C(=O)C(C)(C)C)CC2)CC1=O [Compound A72] | 5 (5=80-100%) | 1 (1=0-19%) | 5 (5=80-100%) | 5 (5=80-100%) | 5 (5=80-100%) | 5 (5=80-100%) | 5 (5=80-100%) | 5 (5=80-100%) |
| COc1cc(-c2ccc(F)cc2)cc(C)c1C1C(=O)CC2(CCN(C(=O)CC#N)CC2)CC1=O [Compound A74] | 5 (5=80-100%) | 5 (5=80-100%) | 5 (5=80-100%) | 5 (5=80-100%) | 5 (5=80-100%) | 5 (5=80-100%) | 5 (5=80-100%) | 5 (5=80-100%) |
